Experimental data from ChEMBL document CHEMBL3714727, “Novel dihydropyrimidinoisoquinolinones and pharmaceutical compositions thereof for the treatment of inflammatory disorders (gpr84 antagonists)” (2014).

How the values were obtained:
[1] = biological target: T1, G-protein coupled receptor 84 (Homo sapiens, UniProt Q9NQS5); assay: Antagonist activity against GPR84 (unknown origin) expressed in cell membranes assessed as inhibition of 3,3'-di-indolylmethane-induced [35S]GTPgammaS binding treated for 90 mins after 3,3'-di-indolylmethane stimulation in buffer containing 20 mM HEPES at pH 7.4 by top-count assay; assay type: functional
T1 sequence (Q9NQS5 whole entry): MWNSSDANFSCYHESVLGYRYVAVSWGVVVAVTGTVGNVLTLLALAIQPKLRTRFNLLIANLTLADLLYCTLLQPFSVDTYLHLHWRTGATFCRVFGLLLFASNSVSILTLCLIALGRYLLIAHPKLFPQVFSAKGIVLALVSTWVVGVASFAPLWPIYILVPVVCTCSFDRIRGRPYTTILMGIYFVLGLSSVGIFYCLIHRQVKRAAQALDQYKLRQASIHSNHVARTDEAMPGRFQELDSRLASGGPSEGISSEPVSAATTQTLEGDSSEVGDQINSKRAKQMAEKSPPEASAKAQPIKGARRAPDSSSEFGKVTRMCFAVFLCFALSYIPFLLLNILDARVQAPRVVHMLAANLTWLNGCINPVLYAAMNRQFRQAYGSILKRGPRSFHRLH

[2] = biological target: T1, G-protein coupled receptor 84; assay: Antagonist activity against GPR84 (unknown origin) expressed in cell membranes assessed as inhibition of 3,3'-di-indolylmethane-induced [35S]GTPgammaS binding treated for 90 mins after 3,3'-di-indolylmethane stimulation in buffer containing 20 mM Tris at pH 7.5 by top-count assay; assay type: functional

Compound	IC50 [1]	IC50 [2]
O=c1nc(OCC2COc3ncccc3O2)cc2n1CCc1cc(OCc3nnn[nH]3)ccc1-2 (centres undefined)	≤ 100 nM	
CC(O)C#Cc1ccc2c(c1)CCn1c-2cc(OCC2COc3ncccc3O2)nc1=O (centres undefined)	≤ 100 nM	
O=c1nc(OCC2COc3ncccc3O2)cc2n1CCc1cc(C#CCNCc3ccccc3)ccc1-2 (centres undefined)	≤ 100 nM	
CC(C)(C)NCc1ccc2c(c1)CCn1c-2cc(OCC2COc3ncccc3O2)nc1=O (centres undefined)	> 1000 nM	
CC1(COCc2ccc3c(c2)CCn2c-3cc(OCC3COc4ncccc4O3)nc2=O)COC1 (centres undefined)	≤ 100 nM	
CCC(O)C#Cc1ccc2c(c1)CCn1c-2cc(OCC2COc3ncccc3O2)nc1=O (centres undefined)	≤ 100 nM	
O=c1nc(OCC2COc3ncccc3O2)cc2n1CCc1cc(OCc3ncco3)ccc1-2 (single isomer, unassigned)	≤ 100 nM	
O=c1nc(OCC2COc3ccccc3O2)cc2n1CCc1cc(OCc3nnn[nH]3)ccc1-2 (centres undefined)	≤ 100 nM	
O=c1nc(OCC2COc3ncccc3O2)cc2n1CCc1cc(CN3CCCCC3)ccc1-2 (centres undefined)	≤ 100 nM	
N#CCOc1ccc2c(c1)CCn1c-2cc(OCC2COc3ncccc3O2)nc1=O (centres undefined)	≤ 100 nM	
O=c1nc(OCC2COc3ncccc3O2)cc2n1CCc1cc(-c3cn[nH]c3)ccc1-2 (centres undefined)	≤ 100 nM	
O=c1nc(OCC2COc3ncccc3O2)cc2n1CCc1cc(COCCN3CCOCC3)ccc1-2 (centres undefined)	≤ 100 nM	
CCCC(O)C#Cc1ccc2c(c1)CCn1c-2cc(OCC2COc3ncccc3O2)nc1=O (centres undefined)	≤ 100 nM	
CC(C)(O)C#Cc1ccc2c(c1)CCn1c-2cc(OCC2COc3ncccc3O2)nc1=O (centres undefined)	≤ 100 nM	
CC(C)C(O)C#Cc1ccc2c(c1)CCn1c-2cc(OCC2COc3ncccc3O2)nc1=O (centres undefined)	≤ 100 nM	
O=c1nc(OCC2COc3ncccc3O2)cc2n1CCc1cc(COC3COC3)ccc1-2 (centres undefined)	≤ 100 nM	
O=C(NCC1COC1)c1ccc2c(c1)CCn1c-2cc(OCC2COc3ncccc3O2)nc1=O (centres undefined)	> 1000 nM	

Other lines, results leading:

IC50 [1]	IC50 [2]	Compound
> 1000 nM		C=CCOc1ccc2c(c1)CCn1c-2cc(OCC2CCCO2)nc1=O (centres undefined)
> 1000 nM		N#Cc1ccc(-c2ccc3c(c2)CCn2c-3cc(OCC3CCCO3)nc2=O)cc1 (centres undefined)
> 1000 nM		CCN(CC)C(=O)COc1ccc2c(c1)CCn1c-2cc(OCC2CCCO2)nc1=O (centres undefined)
≤ 500 nM		O=c1nc(OCC2CCCO2)cc2n1CCc1cc(OCc3cccc(-c4cncnc4)n3)ccc1-2 (centres undefined)
≤ 100 nM		O=c1nc(OCC2CCCO2)cc2n1CCc1cc(OCCOc3ccccc3)ccc1-2 (centres undefined)
> 1000 nM		O=c1nc(OCC2CCCO2)cc2n1CCc1cc(OCc3cccc(-c4ccccc4)n3)ccc1-2 (centres undefined)
	> 1000 nM	Cc1cccc(C)c1-c1ccc2c(c1)CCn1c-2cc(OCC2CCCO2)nc1=O (centres undefined)
> 1000 nM		CC(C)N(C)C(=O)COc1ccc2c(c1)CCn1c-2cc(OCC2CCCO2)nc1=O (centres undefined)
≤ 100 nM		O=c1nc(OCC2CCCO2)cc2n1CCc1cc(OCc3cccc([N+](=O)[O-])c3)ccc1-2 (centres undefined)
> 1000 nM		O=C(O)c1ccc(-c2ccc3c(c2)CCn2c-3cc(OCC3CCCO3)nc2=O)cc1 (centres undefined)
	> 1000 nM	CN(C)C(=O)c1cccc(-c2ccc3c(c2)CCn2c-3cc(OCC3CCCO3)nc2=O)c1 (centres undefined)
> 1000 nM		NC(=O)COc1ccc2c(c1)CCn1c-2cc(OCC2CCCO2)nc1=O (centres undefined)
≤ 100 nM		O=c1nc(OCC2CCCO2)cc2n1CCc1cc(OCC3COc4ccccc4O3)ccc1-2 (centres undefined)
≤ 100 nM		O=c1nc(OCC2COc3ncccc3O2)cc2n1CCc1cc(OCc3ccccn3)ccc1-2 (centres undefined)
> 1000 nM		O=c1nc(OCC2CCCO2)cc2n1CCc1cc(O)ccc1-2 (centres undefined)
≤ 100 nM		COc1ccc(COc2ccc3c(c2)CCn2c-3cc(OCC3CCCO3)nc2=O)cc1 (centres undefined)
	> 1000 nM	CC(C)(C)OC(=O)n1cccc1-c1ccc2c(c1)CCn1c-2cc(OCC2CCCO2)nc1=O (centres undefined)
> 1000 nM		CN(C)C(=O)COc1ccc2c(c1)CCn1c-2cc(OCC2CCCO2)nc1=O (centres undefined)
	> 1000 nM	O=c1nc(OCC2CCCO2)cc2n1CCc1cc(-c3cncnc3)ccc1-2 (centres undefined)
> 1000 nM		N#CCOc1ccc2c(c1)CCn1c-2cc(OCC2CCCO2)nc1=O (centres undefined)
> 1000 nM		Cn1cc(-c2ccc3c(c2)CCn2c-3cc(OCC3CCCO3)nc2=O)cn1 (centres undefined)
> 1000 nM		COc1ccc2c(c1)CCn1c-2cc(OCC2CCc3ccccc3O2)nc1=O (centres undefined)
